Values after ≈ are worked out from the molar mass of the structure shown. Marks after values point to notes of the source that are not given here. Numbered stars: 1 amine (or outer) side, 2 acyl side, 3 side chain; on linkers, the order of the positions; unused ones are H or OH. Square brackets hold non-standard residues; d marks the D form. Side chains are listed from the residue outwards. Peptide text beside a SMILES is read from it. * marks the point of attachment. C20 diacid = O=C(O)CCCCCCCCCCCCCCCCCCC(=O)*; C18 diacid = O=C(O)CCCCCCCCCCCCCCCCC(=O)*; γGlu = O=C(O)[C@H](CCC(=O)[*:2])N[*:1]; AEEA = NCCOCCOCC(=O)O; Aib = CC(C)(N)C(=O)O
What was measured:
[1] = Effect on body weight of DIO mice after 14 days' administration; format: in vivo, C57BL/6J mice; settings: for body weight reduction (in words): 14 days, conclusions on Tables 3 and 5
Outline: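 C57BL/6J mice on H10060 high-fat diet for 34 weeks (DIO; 45.0–52.0 g), 5 per group, dosed subcutaneously once daily for 14 days; controls received saline. Body weight change (%) = (initial − last-day weight)/initial weight; positive values mean loss.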

physchem = format: physicochemical
[2] = Accelerated chemical stability in injection solvent system (HPLC-UV); format: physicochemical; settings: 14 days, phosphate buffer pH 7.3 with Tween 80 and phenol, main peak area vs day 0
Outline: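 Compound dissolved in 10 mM pH 8.5 sodium hydrogen phosphate buffer, adjusted to pH 7.3, with Tween 80 and phenol added. Solutions stored 14 days at 10 °C and 37 °C; HPLC-UV main-peak area by normalisation compared against day 0.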

[3] = Glucose tolerance test in glucose-loaded DIO mice; format: in vivo; set-up: AUC reduction rate (%), Table 6: concentration or dose not given beside the values; settings: for glucose tolerance / blood glucose lowering (in words): conclusions on Tables 4 and 6
Outline: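 DIO mice fasted 16 h received compound subcutaneously; 1 h later, glucose 1 g/kg was given intraperitoneally. Blood glucose measured at 0.5, 1 and 1.5 h; AUC compared with model control group to give blood glucose inhibition rate (%).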

human GLP-1 receptor = molecular target: T1, human GLP-1 receptor (Homo sapiens, UniProt P43220); test: GLP-1 receptor mediated cAMP production in vitro; format: cell-based; settings: cells transfected with human GLP-1 receptor, 20 min at 37° C., read-out: GLP-1R (nM EC50)
T1 construct: expressed in transfected cells; host or cells: Chinese guinea pig lung cells [sic]
T1 sequence (P43220 24-463): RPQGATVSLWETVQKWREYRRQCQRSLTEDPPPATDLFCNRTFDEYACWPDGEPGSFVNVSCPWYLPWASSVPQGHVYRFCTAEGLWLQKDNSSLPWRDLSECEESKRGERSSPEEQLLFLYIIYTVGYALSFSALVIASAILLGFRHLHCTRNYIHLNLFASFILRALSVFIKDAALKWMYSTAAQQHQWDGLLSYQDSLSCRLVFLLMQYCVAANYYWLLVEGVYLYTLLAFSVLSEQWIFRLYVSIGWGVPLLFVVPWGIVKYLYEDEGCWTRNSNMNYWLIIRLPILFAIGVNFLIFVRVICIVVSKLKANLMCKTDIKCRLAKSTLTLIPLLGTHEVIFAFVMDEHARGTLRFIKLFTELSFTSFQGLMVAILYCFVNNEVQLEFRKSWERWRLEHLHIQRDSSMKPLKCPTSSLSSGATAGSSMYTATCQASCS
Excerpt: (§1) The medium was removed, the cells were lysed, and cAMP values were detected referring to the detection method described for the assay kit.

GC receptor = molecular target: T2, GC receptor (Homo sapiens, UniProt P47871); test: GC receptor mediated cAMP production in vitro (HEK293 cells transfected with GC receptor); format: cell-based; settings: 20 min at 37° C., read-out: GCGR (nM EC50)
T2 construct: expressed in transfected cells; host or cells: HEK293 cells
T2 sequence (P47871 26-477): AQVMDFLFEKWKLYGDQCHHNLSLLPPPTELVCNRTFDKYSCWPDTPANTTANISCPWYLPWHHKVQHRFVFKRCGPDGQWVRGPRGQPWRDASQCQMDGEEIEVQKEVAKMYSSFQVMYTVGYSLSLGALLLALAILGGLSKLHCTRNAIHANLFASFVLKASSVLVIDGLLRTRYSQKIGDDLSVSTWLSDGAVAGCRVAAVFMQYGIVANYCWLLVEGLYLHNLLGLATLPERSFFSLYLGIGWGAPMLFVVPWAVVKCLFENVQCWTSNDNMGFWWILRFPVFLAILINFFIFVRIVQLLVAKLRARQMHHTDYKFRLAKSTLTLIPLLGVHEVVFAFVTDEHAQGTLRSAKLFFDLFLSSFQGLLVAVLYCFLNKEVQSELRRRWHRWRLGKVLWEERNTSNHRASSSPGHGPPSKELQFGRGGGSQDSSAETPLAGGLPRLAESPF
Excerpt: as §1

[4] = Short-term administration: food intake and body weight in DIO mice; format: in vivo; settings: 30 nmol/kg once every 24 h, twice, − decrease; for Rate of change in food intake (%): at 48 hours vs day before administration; for Body weight change: at 48 hours
Outline: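 DIO mice (mean body weight 52.5 g), 5 per group, dosed at 30 nmol/kg every 24 h for two doses, in 10 mM PBS pH 7.4; controls received solvent. Food intake and body weight at 48 h expressed as change rate versus the day before dosing.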

[5] = pH 7.5, Solubility, pH 7.5, 10 mM phosphate buffer
[6] = pH 7.5, Solubility, pH 7.5, 20 mM phosphate buffer
[7] = pH 8, Solubility, pH 8.0, 10 mM phosphate buffer
[8] = pH 8, Solubility, pH 8.0, 20 mM phosphate buffer
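Wherever Solubility is given: compound added at 2 mg per mL of phosphate buffer, with the dissolved amount determined in the supernatant.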

SMILES	body weight reduction (in words) ([1]; DIO mice)	solubility (physchem; [5]) [µg/mL]	solubility (physchem; [6]) [µg/mL]	solubility (physchem; [7]) [µg/mL]	solubility (physchem; [8]) [µg/mL]	Change in purity % (10° C.) [2] [%]	Change in purity % (37° C.) [2] [%]	glucose tolerance / blood glucose lowering (in words) ([3]; DIO mice)	EC50 (human GLP-1 receptor) [nM]	EC50 (GC receptor) [nM]	Rate of change in food intake (%) [4] [%]	Body weight change [4] [g]	body weight change rate, Table 3 ([1]; DIO mice, subcutaneous injection every day for 14 days, (initial−last)/initial, positive values indicate a decrease) [%]	AUC of blood glucose, Table 4 ([3]; DIO mice fasted 16 h, glucose 1 g/kg i.p. 1 h after s.c. administration, 0.5, 1, 1.5 h) [mmol·h/L]	AUC reduction rate (%), Table 4 ([3]; blood glucose inhibition rate compared with model control group, DIO mice, glucose 1 g/kg i.p.)	body weight change, Table 5 ([1]; Example 4, DIO mice, 14 days' administration, methods as in Example 3, positive values indicate a decrease)	AUC of blood glucose, Table 6 ([3]; Example 4, DIO mice under glucose load, methods as in Example 3) [mmol·h/L]	AUC reduction rate (%), Table 6 ([3]; Example 4, compared with model control group, DIO mice under glucose load)
CC[C@H](C)[C@H](NC(=O)[C@H](Cc1ccccc1)NC(=O)[C@H](CCC(=O)O)NC(=O)[C@H](CCCCN)NC(=O)[C@H](C)NC(=O)[C@H](C)NC(=O)[C@H](CCCNC(=N)N)NC(=O)[C@H](CCC(=O)O)NC(=O)[C@H](CCC(=O)O)NC(=O)[C@H](CC(C)C)NC(=O)[C@H](Cc1ccc(O)cc1)NC(=O)[C@H](CCCCN)NC(=O)[C@H](CO)NC(=O)[C@H](CCCCNC(=O)COCCOCCNC(=O)COCCOCCNC(=O)CC[C@H](NC(=O)CCCCCCCCCCCCCCCCCCC(=O)O)C(=O)O)NC(=O)[C@H](CC(=O)O)NC(=O)[C@H](CO)NC(=O)[C@@H](NC(=O)[C@H](Cc1ccccc1)NC(=O)[C@@H](NC(=O)CNC(=O)[C@H](CCC(N)=O)NC(=O)C(C)(C)NC(=O)[C@@H](N)Cc1c[nH]cn1)[C@@H](C)O)[C@@H](C)O)C(=O)N[C@@H](C)C(=O)N[C@@H](Cc1c[nH]c2ccccc12)C(=O)N[C@@H](CC(C)C)C(=O)N[C@@H](CCC(=O)O)C(=O)N[C@@H](C)C(=O)NCC(=O)NCC(=O)N1CCC[C@H]1C(=O)N[C@@H](CO)C(=O)N[C@@H](CO)C(=O)NCC(N)=O [Compound 35] (H-H[Aib]QGTFTSDK([AEEA-AEEA-γGlu-C20 diacid])SKYLEERAAKEFIAWLEAGGPSSG-NH2; N-terminus assumed)	significantly reduced body weight	1840 (≈ 416 µM)	1170 (≈ 264 µM)	> 2000	> 2000	−0.6	−3.1	significantly improved glucose tolerance	0.044	0.036	−59	-3.2						
CCCCCCCCCCCCCCCC(=O)N[C@@H](CCC(=O)N[C@@H](CCC(=O)NCCCC[C@H](NC(=O)[C@H](CC(=O)O)NC(=O)[C@H](CO)NC(=O)[C@@H](NC(=O)[C@H](Cc1ccccc1)NC(=O)[C@@H](NC(=O)CNC(=O)[C@H](CCC(N)=O)NC(=O)C(C)(C)NC(=O)[C@@H](N)Cc1c[nH]cn1)[C@@H](C)O)[C@@H](C)O)C(=O)N[C@@H](CO)C(=O)N[C@@H](CCCCN)C(=O)N[C@@H](Cc1ccc(O)cc1)C(=O)N[C@@H](CC(C)C)C(=O)N[C@@H](CCC(=O)O)C(=O)N[C@@H](CCC(=O)O)C(=O)N[C@@H](CCCNC(=N)N)C(=O)N[C@@H](C)C(=O)N[C@@H](C)C(=O)N[C@@H](CCCCN)C(=O)N[C@@H](CCC(=O)O)C(=O)N[C@@H](Cc1ccccc1)C(=O)N[C@H](C(=O)N[C@@H](C)C(=O)N[C@@H](Cc1c[nH]c2ccccc12)C(=O)N[C@@H](CC(C)C)C(=O)N[C@@H](CCC(=O)O)C(=O)N[C@@H](C)C(=O)NCC(=O)NCC(=O)N1CCC[C@H]1C(=O)N[C@@H](CO)C(=O)N[C@@H](CO)C(=O)NCC(N)=O)C(C)C)C(=O)O)C(=O)O [Compound 4] (HELM PEPTIDE1{H.[Aib].Q.G.T.F.T.S.D.K.S.K.Y.L.E.E.R.A.A.K.E.F.V.A.W.L.E.A.G.G.P.S.S.G.[am]}|PEPTIDE2{[CCCCCCCCCCCCCCCC(=O)[*:2]].[gGlu].[gGlu]}$PEPTIDE1,PEPTIDE2,10:R3-3:R2$$$V2.0; N-terminus assumed)		1820 (≈ 437 µM)	1220 (≈ 293 µM)	> 2000	> 2000	−0.9	−3.7		0.051	0.024	−42	-1.5	26.0	9.02 ± 1.74	57.4** %			
CC(C)C[C@H](NC(=O)[C@H](Cc1c[nH]c2ccccc12)NC(=O)[C@H](CCC(=O)O)NC(=O)[C@@H](NC(=O)[C@H](Cc1ccccc1)NC(=O)[C@H](CCC(=O)O)NC(=O)[C@H](CCCCNC(=O)COCCOCCNC(=O)COCCOCCNC(=O)CC[C@H](NC(=O)CCCCCCCCCCCCCCCCC(=O)O)C(=O)O)NC(=O)[C@H](C)NC(=O)[C@H](CCCNC(=N)N)NC(=O)[C@H](CCCCN)NC(=O)[C@H](CCC(=O)O)NC(=O)[C@H](CCC(=O)O)NC(=O)[C@H](CC(C)C)NC(=O)[C@H](Cc1ccc(O)cc1)NC(=O)[C@H](CCCCN)NC(=O)[C@H](CO)NC(=O)[C@H](Cc1ccc(O)cc1)NC(=O)[C@H](CC(=O)O)NC(=O)[C@H](CO)NC(=O)[C@@H](NC(=O)[C@H](Cc1ccccc1)NC(=O)[C@@H](NC(=O)CNC(=O)[C@H](CCC(N)=O)NC(=O)C(C)(C)NC(=O)[C@@H](N)Cc1c[nH]cn1)[C@@H](C)O)[C@@H](C)O)C(C)C)C(=O)N[C@@H](CCC(=O)O)C(=O)N[C@@H](C)C(=O)NCC(=O)NCC(=O)N1CCC[C@H]1C(=O)N[C@@H](CO)C(=O)N[C@@H](CO)C(=O)NCC(N)=O [Compound 54] (H-H[Aib]QGTFTSDYSKYLEEKRAK([AEEA-AEEA-γGlu-C18 diacid])EFVEWLEAGGPSSG-NH2; N-terminus assumed)	significantly reduced body weight	1260 (≈ 278 µM)	1080 (≈ 238 µM)	1920 (≈ 423 µM)	1180 (≈ 260 µM)			significantly improved glucose tolerance	0.219	0.274	−35	-0.9						
CC[C@H](C)[C@H](NC(=O)[C@H](Cc1ccccc1)NC(=O)[C@H](CCC(=O)O)NC(=O)[C@H](CCCCN)NC(=O)[C@H](C)NC(=O)[C@H](C)NC(=O)[C@H](CCCNC(=N)N)NC(=O)[C@H](CCC(=O)O)NC(=O)[C@H](CCC(=O)O)NC(=O)[C@H](CC(C)C)NC(=O)[C@H](Cc1ccc(O)cc1)NC(=O)[C@H](CCCCN)NC(=O)[C@H](CO)NC(=O)[C@H](CCCCNC(=O)COCCOCCNC(=O)COCCOCCNC(=O)CC[C@H](NC(=O)CCCCCCCCCCCCCCCCC(=O)O)C(=O)O)NC(=O)[C@H](CC(=O)O)NC(=O)[C@H](CO)NC(=O)[C@@H](NC(=O)[C@H](Cc1ccccc1)NC(=O)[C@@H](NC(=O)CNC(=O)[C@H](CCC(N)=O)NC(=O)C(C)(C)NC(=O)[C@@H](N)Cc1c[nH]cn1)[C@@H](C)O)[C@@H](C)O)C(=O)N[C@@H](C)C(=O)N[C@@H](Cc1c[nH]c2ccccc12)C(=O)N[C@@H](CC(C)C)C(=O)N[C@@H](CCC(=O)O)C(=O)NCC(=O)NCC(=O)N1CCC[C@H]1C(=O)N[C@@H](CO)C(=O)N[C@@H](CO)C(=O)NCC(N)=O [Compound 6] (H-H[Aib]QGTFTSDK([AEEA-AEEA-γGlu-C18 diacid])SKYLEERAAKEFIAWLEGGPSSG-NH2; N-terminus assumed)		1390 (≈ 321 µM)	980 (≈ 226 µM)	> 2000	1620 (≈ 374 µM)				0.439	0.052						28.32	8.99 ± 1.46	54.7** %
